Reference: patent publication US20180021270A1, “METHODS FOR THE TREATMENT OF CANCER USING COENZYME Q10 IN COMBINATION WITH IMMUNE CHECKPOINT MODULATORS” (Berg LLC, priority 2016, published 2018)

Columns and labels:
[1] = system: CD3 positive murine T cells within Balb/c PBMCs; test: Viability of murine CD3 positive T cells within PBMCs; type: cell-based, mouse; settings: 0-800 μM, 24 hours, dose-dependent, non-stimulated and PHA-stimulated cells
Method: The effects of Coenzyme Q10 on murine immune cells were also evaluated to determine whether Coenzyme Q10 has similar effects as those described above for human immune cells. For example, the viability of murine CD3 positive T cells within PHA-stimulated or unstimulated Balb/c PBMCs was determined. Cells were concurrently treated with Coenzyme Q10 (0, 12.5, 50, 200, 400 or 800 μM) for 24 hours and analyzed by flow cytometry using surface marker antibody for αCD3 and viability stains Annexin V/7AAD. CD3 positive and CD3 negative cell populations were identified within total cell population excluding debris, and viability was determined by plotting Annexin V-FITC vs. 7AAD. Two experiments using two different pools of Balb/c PBMCs and one experiment using C57B1/6 PBMCs were conducted. As shown in FIGS. 21A and 21B, Coenzyme Q10 increased the viability of CD3 positive murine T cells in a dose-dependent manner for both non-stimulated and PHA-stimulated cells.

[2] = system: tumor associated macrophages (TAMs) in murine Pan02 pancreatic tumors; test: F4/80 IHC pathological scoring of tumor associated macrophages in Pan02 tumors; type: in vivo, mouse
Method: Pancreatic tumor samples from mice treated with different doses of Coenzyme Q10 were analyzed for the presence of tumor associated macrophages (TAMs). TAMs are found in close proximity to or within tumors and support tumor growth. C57B1/6 female mice were inoculated with Pan02 cells. When tumors reached a mean volume of 100 mm^3, animals were randomized into four groups and treated with vehicle control or Coenzyme Q10 (25, 50 or 100 mg/kg) twice daily for 21 days. At the end of the study, tumors were removed and subjected to immunohistochemistry (IHC) analysis for TAMs using the F4/80 marker. All slides were subjected to a pathological scoring. […] As shown in FIGS. 28A and 28B, Coenzyme Q10 decreased TAMs in a dose dependent manner.

[3] = system: PD-L1 protein on the surface of pancreatic cancer cells (MIA PaCa-2); test: Flow cytometry of PD-L1 protein on the cancer cell surface; type: cell-based, human; settings: MIA PaCa-2, 72 hours after treatment
Method: (§1) Flow cytometry analysis with a fluorescent probe for PD-L1 was used to determine the expression of PD-L1 protein on the surface of various human cancer cell lines. The cells were treated with 100 μM Coenzyme Q10, or the IC50 of Coenzyme Q10 for each cell line. […] The increased PD-L1 levels observed in breast cancer cells in response to Coenzyme Q10 treatment were not due to changes in cell populations.
(§2) Human pancreatic (MIA PaCa-2), ovarian (SKOV-3), and lung (A549) cancer cell lines treated with Coenzyme Q10 were also analyzed by flow cytometry to determine PD-L1 protein expression on the cancer cell surface.

[4] = system: PD-L1 protein on the surface of ovarian cancer cells (SKOV-3); test: as above; type: cell-based, human; settings: SKOV-3, 72 hours after treatment
Method: as §1, §2

[5] = system: PD-L1 protein on the surface of lung cancer cells (A549); test: as above; type: cell-based, human; settings: A549, 72 hours after treatment
Method: as §1, §2

[6] = system: breast (MDA-MB231), prostate (LnCAP), ovarian (SKOV-3), colon (HT29), lung (A549), liver (Huh-7), and pancreatic (MIA PaCa-2) cancer cells; test: mRNA expression of PD1, PD-L1 and PD-L2 in cancer cells treated with Coenzyme Q10 (other treatment groups); type: cell-based, human; settings: 50 μM, 100 μM or IC50 of Coenzyme Q10; all groups other than PD-L1 in HT29 at 50 μM
Method: Levels of mRNA expression of the immune checkpoints PD1, PD-L1 and PD-L2 were determined in human breast (MDA-MB231), prostate (LnCAP), ovarian (SKOV-3), colon (HT29), lung (A549), liver (Huh-7), and pancreatic (MIA PaCa-2) cancer cells treated with 50 μM Coenzyme Q10, 100 μM Coenzyme Q10, or the IC50 of Coenzyme Q10 for each cell line.

[7] = system: mouse syngeneic tumor cell lines (LL2, Hepa1-6, B16F10, CT26, EMT6/P, Renca); test: Cell viability (CellTiter-Fluor), all six mouse syngeneic tumor cell lines; type: cell-based; settings: 0-25 mM, 72 hours, dose dependent
Method: The sensitivity of mouse syngeneic tumor cell lines to Coenzyme Q10 was evaluated in vitro. Six mouse syngeneic tumor cell lines from different tissue types were exposed to increasing concentrations of Coenzyme Q10 (0-25 mM) at 37° C. for 72 hours. Cell viability was measured using CellTiter-Fluor kit (Promega, Madison, Wis.). Graphs and IC50 values were calculated using GraphPad Prism using data for at least three independent experiments. Mouse syngeneic tumor cell lines evaluated were Lewis lung carcinoma (LL2), hepatoma (Hepa1-6) skin melanoma (B16F10), colon cancer (CT26), mammary gland adenocarcinoma (EMT6/P), and renal adenocarcinoma (Renca). As shown in FIGS. 24A-24F, Coenzyme Q10 reduced viability of all of the tumor cell lines in a dose dependent manner.

[8] = system: PD-L1 protein on the surface of mouse syngeneic tumor cell lines; test: PD-L1 protein on the surface of mouse syngeneic tumor cells; type: cell-based; settings: with or without INFγ, IC50 amount of Coenzyme Q10, 24 hours
Method: The effect of Coenzyme Q10 on the level of PD-L1 protein on the surface of the mouse syngeneic tumor cells was also evaluated. Mouse syngeneic tumor cell lines from different tissue types were cultured with or without interferon γ (INFγ) in the presence or absence of their corresponding IC50 amount of Coenzyme Q10 at 37° C. for 24 hours.

[9] = system: human T cells within PBMCs; test: T cell proliferation by Click-iT EdU flow cytometry; type: cell-based; settings: 200 μM Coenzyme Q10, 72 hours, EdU final 18 hours
Method: Proliferation of T cells was assessed by flow cytometry using Click-iT® EdU technology (Thermo Fisher Scientific, Waltham, Mass.), a proliferation assay that is optimized for fluorescence microscopy applications. In this assay, the modified thymidine analogue EdU is incorporated into newly synthesized DNA and fluorescently labeled with a bright, photostable Alexa Fluor® dye. PBMCs were obtained from three different human donors. PBMCs were incubated with or without PHA for 72 hours while concurrently treated with Coenzyme Q10 (200 μM). 10 μM of EdU was added for the final 18 hours and stained with Invitrogen Alexa Fluor 488 piclyl azide according to the manufacturer's protocol. Cells were then stained with surface marker antibodies for CD3/CD8, or CD3/CD4 to identify cytotoxic T cells or helper T cells, respectively. Cells were then analyzyed by flow cytometry applying gating strategy.

[10] = 25 mg/kg twice daily for 21 days
[11] = 50 mg/kg twice daily for 21 days
[12] = 100 mg/kg twice daily for 21 days

COC1=C(OC)C(=O)C(C/C=C(\C)CC/C=C(\C)CC/C=C(\C)CC/C=C(\C)CC/C=C(\C)CC/C=C(\C)CC/C=C(\C)CC/C=C(\C)CC/C=C(\C)CCC=C(C)C)=C(C)C1=O [Coenzyme Q10]
Viability of CD3 positive murine T cells [1]: increased
Percentage of mice with TAM levels Higher than Control [2, 10]: 0%
Percentage of mice with TAM levels Lower than Control [2, 10]: 20%
Percentage of mice with TAM levels Similar to Control [2, 10]: 80%
Percentage of mice with TAM levels Higher than Control [2, 11]: 0%
Percentage of mice with TAM levels Lower than Control [2, 11]: 85.8%
Percentage of mice with TAM levels Similar to Control [2, 11]: 14.3%
Percentage of mice with TAM levels Higher than Control [2, 12]: 0%
Percentage of mice with TAM levels Lower than Control [2, 12]: 44.4%
Percentage of mice with TAM levels Similar to Control [2, 12]: 55.6%
Tumor associated macrophages (TAMs) in tumors ([2]; 25, 50 or 100 mg/kg twice daily for 21 days): decreased
Amount of PD-L1 protein on the cell surface [3]: significantly increased
Percentage of cells having PD-L1 protein on their surface [3]: significantly increased
Amount of PD-L1 protein on the cell surface [4]: small but significant increase
Percentage of cells having PD-L1 protein on their surface [4]: did not significantly change
Amount of PD-L1 on the cell surface [5]: did not significantly change
Percentage of cells having PD-L1 protein on their surface [5]: did not significantly change
PD1, PD-L1 and PD-L2 mRNA expression, other treatment groups [6]: no significant differences
Viability of all of the tumor cell lines [7]: reduced
Level of PD-L1 protein on the cell surface [8]: did not have any effect
Proliferation of PHA-activated cytotoxic T cells [9]: increased
